Starred links: 1 amine or outer side, 2 acyl side, 3 side chain; linkers in the order of their positions; H or OH if unused. Non-standard residues stand in square brackets, D forms with d. Residues, ends and D or L forms follow the SMILES beside them. Groups on a side chain read outwards from the residue. *: point of attachment. C20 diacid = O=C(O)CCCCCCCCCCCCCCCCCCC(=O)*; C18 diacid = O=C(O)CCCCCCCCCCCCCCCCC(=O)*; C17 diacid = O=C(O)CCCCCCCCCCCCCCCC(=O)*; γGlu = O=C(O)[C@H](CCC(=O)[*:2])N[*:1]; NMeY = CN[C@@H](Cc1ccc(O)cc1)C(=O)O; AEEA = NCCOCCOCC(=O)O; Aib = CC(C)(N)C(=O)O

The data set can be described thus: Solubility in phosphate buffer pH 7.4. Put shortly:
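3 mg of peptide treated with 100 μL portions of 200 mM phosphate buffer pH 7.4, sonicating/vortexing up to 1 min, with further buffer added until fully dissolved. Solubility then quantified by HPLC.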

The mark [1] stands for this setting: pH 7.4, aqueous buffer, pH 7.4 Phosphate Buffer - Solubility, 200 mM Phosphate buffer pH 7.4.
Setting [2] is: pH 7.4, solubility in phosphate buffer at pH 7.4, 200 mM phosphate buffer pH 7.4.

For the compound `CC[C@H](C)[C@H](NC(=O)[C@H](CO)NC(=O)[C@H](Cc1ccc(O)cc1)NC(=O)[C@H](CC(=O)O)NC(=O)[C@H](CO)NC(=O)[C@@H](NC(=O)[C@H](Cc1ccccc1)NC(=O)[C@@H](NC(=O)CNC(=O)[C@H](CCC(=O)O)NC(=O)C(C)(C)NC(=O)[C@H](Cc1ccc(O)cc1)NC)[C@@H](C)O)[C@@H](C)CC)C(=O)N[C@@H](C)C(=O)N[C@@H](CC(C)C)C(=O)N[C@@H](CC(=O)O)C(=O)N[C@@H](CCCNC(=N)N)C(=O)NC(C)(C)C(=O)N[C@@H](CCCCNC(=O)COCCOCCNC(=O)COCCOCCNC(=O)CC[C@H](NC(=O)CCCCCCCCCCCCCCCC(=O)O)C(=O)O)C(=O)N[C@@H](CCC(N)=O)C(=O)NC(C)(C)C(=O)N[C@@H](CC(=O)O)C(=O)N[C@@H](Cc1ccccc1)C(=O)N[C@H](C(=O)N[C@@H](CC(N)=O)C(=O)N[C@@H](Cc1c[nH]c2ccccc12)C(=O)N[C@@H](CC(C)C)C(=O)N[C@@H](CC(C)C)C(=O)N[C@@H](C)C(=O)N[C@@H](CCC(N)=O)C(=O)N[C@@H](CCCNC(=N)N)C(=O)N1CCC[C@H]1C(=O)N[C@@H](CO)C(=O)N[C@@H](CO)C(=O)NCC(=O)N[C@@H](C)C(=O)N1CCC[C@H]1C(=O)N1CCC[C@H]1C(=O)N1CCC[C@H]1C(=O)N[C@@H](CO)C(N)=O)C(C)C` [Compound 25] (H-[NMeY][Aib]EGTFISDYSIALDR[Aib]K([AEEA-AEEA-γGlu-C17 diacid])Q[Aib]DFVNWLLAQRPSSGAPPPS-NH2), the solubility – broadly, the concentration that dissolves in the medium under given conditions – was not below 30 mg/mL under setting [1] and not below 15 mg/mL under setting [2]. Regarding `CC[C@H](C)[C@H](NC(=O)[C@H](Cc1ccccc1)NC(=O)[C@@H](NC(=O)CNC(=O)[C@H](CCC(=O)O)NC(=O)C(C)(C)NC(=O)[C@H](Cc1ccc(O)cc1)NC)[C@@H](C)O)C(=O)N[C@@H](CO)C(=O)N[C@@H](CC(=O)O)C(=O)N[C@@H](Cc1ccc(O)cc1)C(=O)N[C@@H](CO)C(=O)N[C@H](C(=O)NC(C)(C)C(=O)N[C@@H](CCCCNC(=O)CNC(=O)CNC(=O)CNC(=O)CNC(=O)CNC(=O)CCCCCCCCCCCCCCCCC(=O)O)C(=O)N[C@@H](CC(=O)O)C(=O)N[C@@H](CCCNC(=N)N)C(=O)NC(C)(C)C(=O)N[C@@H](C)C(=O)N[C@@H](CCC(N)=O)C(=O)NC(C)(C)C(=O)N[C@@H](CC(=O)O)C(=O)N[C@@H](Cc1ccccc1)C(=O)N[C@H](C(=O)N[C@@H](CC(N)=O)C(=O)N[C@@H](Cc1c[nH]c2ccccc12)C(=O)N[C@@H](CC(C)C)C(=O)N[C@@H](CC(C)C)C(=O)N[C@@H](C)C(=O)N[C@@H](CCC(N)=O)C(=O)N[C@@H](CCCNC(=N)N)C(=O)N1CCC[C@H]1C(=O)N[C@@H](CO)C(=O)N[C@@H](CO)C(=O)NCC(=O)N[C@@H](C)C(=O)N1CCC[C@H]1C(=O)N1CCC[C@H]1C(=O)N1CCC[C@H]1C(=O)N[C@@H](CO)C(N)=O)C(C)C)[C@@H](C)CC` [Compound 276], the solubility under setting [1] is less than 15 mg/mL.

For `CC[C@H](C)[C@H](NC(=O)[C@H](Cc1ccccc1)NC(=O)[C@@H](NC(=O)CNC(=O)[C@H](CCC(=O)O)NC(=O)C(C)(C)NC(=O)[C@H](Cc1ccc(O)cc1)NC)[C@@H](C)O)C(=O)N[C@@H](CO)C(=O)N[C@@H](CC(=O)O)C(=O)N[C@@H](Cc1ccc(O)cc1)C(=O)N[C@@H](CO)C(=O)N[C@H](C(=O)NC(C)(C)C(=O)N[C@@H](CC(C)C)C(=O)N[C@@H](CC(=O)O)C(=O)N[C@@H](CCCNC(=N)N)C(=O)NC(C)(C)C(=O)N[C@@H](C)C(=O)N[C@@H](CCC(N)=O)C(=O)NC(C)(C)C(=O)N[C@@H](CCCCNC(=O)COCCOCCNC(=O)CC[C@H](NC(=O)COCCOCCNC(=O)CC[C@H](NC(=O)CCCCCCCCCCCCCCCCC(=O)O)C(=O)O)C(=O)O)C(=O)N[C@@H](Cc1ccccc1)C(=O)N[C@H](C(=O)N[C@@H](CC(N)=O)C(=O)N[C@@H](Cc1c[nH]c2ccccc12)C(=O)N[C@@H](CC(C)C)C(=O)N[C@@H](CC(C)C)C(=O)N[C@@H](C)C(=O)N[C@@H](CCC(N)=O)C(=O)N[C@@H](CO)C(=O)N1CCC[C@H]1C(=O)N[C@@H](CO)C(=O)N[C@@H](CO)C(=O)NCC(=O)N[C@@H](C)C(=O)N1CCC[C@H]1C(=O)N1CCC[C@H]1C(=O)N1CCC[C@H]1C(=O)N[C@@H](CO)C(N)=O)C(C)C)[C@@H](C)CC` [Compound 92] (H-[NMeY][Aib]EGTFISDYSI[Aib]LDR[Aib]AQ[Aib]K([AEEA-γGlu-AEEA-γGlu-C18 diacid])FVNWLLAQSPSSGAPPPS-NH2), the solubility by setting is: under setting [1], not below 60 mg/mL; under setting [2], not below 15 mg/mL.

Take `CC[C@H](C)[C@H](NC(=O)[C@H](Cc1ccccc1)NC(=O)[C@@H](NC(=O)CNC(=O)[C@H](CCC(=O)O)NC(=O)C(C)(C)NC(=O)[C@H](Cc1ccc(O)cc1)NC)[C@@H](C)O)C(=O)N[C@@H](CO)C(=O)N[C@@H](CC(=O)O)C(=O)N[C@@H](Cc1ccc(O)cc1)C(=O)N[C@@H](CO)C(=O)N[C@H](C(=O)NC(C)(C)C(=O)N[C@@H](CCCCNC(=O)CNC(=O)CNC(=O)CNC(=O)CNC(=O)CNC(=O)CC[C@H](NC(=O)CCCCCCCCCCCCCCCCC(=O)O)C(=O)O)C(=O)N[C@@H](CC(=O)O)C(=O)N[C@@H](CCCNC(=N)N)C(=O)NC(C)(C)C(=O)N[C@@H](C)C(=O)N[C@@H](CCC(N)=O)C(=O)NC(C)(C)C(=O)N[C@@H](CC(N)=O)C(=O)N[C@@H](Cc1ccccc1)C(=O)N[C@H](C(=O)N[C@@H](CC(N)=O)C(=O)N[C@@H](Cc1c[nH]c2ccccc12)C(=O)N[C@@H](CC(C)C)C(=O)N[C@@H](CC(C)C)C(=O)N[C@@H](C)C(=O)N[C@@H](CCC(N)=O)C(=O)N[C@@H](CCCNC(=N)N)C(=O)N1CCC[C@H]1C(=O)N[C@@H](CO)C(=O)N[C@@H](CO)C(=O)NCC(=O)N[C@@H](C)C(=O)N1CCC[C@H]1C(=O)N1CCC[C@H]1C(=O)N1CCC[C@H]1C(=O)N[C@@H](CO)C(N)=O)C(C)C)[C@@H](C)CC` [Compound 262]: the solubility under setting [1] was less than 6 mg/mL. Turning to `CC[C@H](C)[C@H](NC(=O)[C@H](CO)NC(=O)[C@H](Cc1ccc(O)cc1)NC(=O)[C@H](CC(=O)O)NC(=O)[C@H](CO)NC(=O)[C@@H](NC(=O)[C@H](Cc1ccccc1)NC(=O)[C@@H](NC(=O)CNC(=O)[C@H](CCC(=O)O)NC(=O)C(C)(C)NC(=O)[C@@H](N)Cc1ccc(O)cc1)[C@@H](C)O)[C@@H](C)CC)C(=O)N[C@@H](C)C(=O)NC(C)(C)C(=O)N[C@@H](CC(=O)O)C(=O)N[C@@H](CCCCN)C(=O)N[C@H](C(=O)N[C@@H](CCCCNC(=O)COCCOCCNC(=O)COCCOCCNC(=O)CC[C@H](NC(=O)CCCCCCCCCCCCCCCCC(=O)O)C(=O)O)C(=O)N[C@@H](CCC(N)=O)C(=O)N[C@@H](C)C(=O)N[C@@H](CC(=O)O)C(=O)N[C@@H](Cc1ccccc1)C(=O)N[C@H](C(=O)N[C@@H](CCC(=O)O)C(=O)N[C@@H](Cc1c[nH]c2ccccc12)C(=O)N[C@@H](CC(C)C)C(=O)N[C@@H](CC(C)C)C(=O)N[C@@H](C)C(=O)N[C@@H](CCC(N)=O)C(=O)N[C@@H](CCCNC(=N)N)C(=O)NCC(=O)O)C(C)C)[C@@H](C)CC` [Compound 166] (H-Y[Aib]EGTFISDYSIA[Aib]DKIK([AEEA-AEEA-γGlu-C18 diacid])QADFVEWLLAQRG-OH), the solubility is not below 15 mg/mL (pH 7.4) and not below 30 mg/mL (pH 7.4, aqueous buffer). `CC[C@H](C)[C@H](NC(=O)[C@H](CO)NC(=O)[C@H](Cc1ccc(O)cc1)NC(=O)[C@H](CC(=O)O)NC(=O)[C@H](CO)NC(=O)[C@@H](NC(=O)[C@H](Cc1ccccc1)NC(=O)[C@@H](NC(=O)CNC(=O)[C@H](CCC(=O)O)NC(=O)C(C)(C)NC(=O)[C@H](Cc1ccc(O)cc1)NC)[C@@H](C)O)[C@@H](C)CC)C(=O)N[C@@H](C)C(=O)N[C@@H](CCCCNC(=O)COCCOCCNC(=O)COCCOCCNC(=O)CC[C@H](NC(=O)CCCCCCCCCCCCCCCCC(=O)O)C(=O)O)C(=O)N[C@@H](CC(=O)O)C(=O)N[C@@H](CCCNC(=N)N)C(=O)NC(C)(C)C(=O)N[C@@H](C)C(=O)N[C@@H](CCC(N)=O)C(=O)NC(C)(C)C(=O)N[C@@H](CC(N)=O)C(=O)N[C@@H](Cc1ccccc1)C(=O)N[C@H](C(=O)N[C@@H](CC(N)=O)C(=O)N[C@@H](Cc1c[nH]c2ccccc12)C(=O)N[C@@H](CC(C)C)C(=O)N[C@@H](CC(C)C)C(=O)N[C@@H](C)C(=O)N[C@@H](CCC(N)=O)C(=O)N[C@@H](CCCCN)C(N)=O)C(C)C` [Compound 6] (H-[NMeY][Aib]EGTFISDYSIAK([AEEA-AEEA-γGlu-C18 diacid])DR[Aib]AQ[Aib]NFVNWLLAQK-NH2) had a solubility (pH 7.4, aqueous buffer) not below 15 mg/mL.

In the case of `CC[C@H](C)[C@H](NC(=O)[C@H](Cc1ccccc1)NC(=O)[C@@H](NC(=O)CNC(=O)[C@H](CCC(=O)O)NC(=O)C(C)(C)NC(=O)[C@H](Cc1ccc(O)cc1)NC)[C@@H](C)O)C(=O)N[C@@H](CO)C(=O)N[C@@H](CC(=O)O)C(=O)N[C@@H](Cc1ccc(O)cc1)C(=O)N[C@@H](CO)C(=O)N[C@H](C(=O)NC(C)(C)C(=O)N[C@@H](CC(C)C)C(=O)N[C@@H](CC(=O)O)C(=O)N[C@@H](CCCNC(=N)N)C(=O)NC(C)(C)C(=O)N[C@@H](C)C(=O)N[C@@H](CCC(N)=O)C(=O)NC(C)(C)C(=O)N[C@@H](CCCCNC(=O)COCCOCCNC(=O)COCCOCCNC(=O)CC[C@H](NC(=O)CC[C@H](NC(=O)CCCCCCCCCCCCCCCCCCC(=O)O)C(=O)O)C(=O)O)C(=O)N[C@@H](Cc1ccccc1)C(=O)N[C@H](C(=O)N[C@@H](CC(N)=O)C(=O)N[C@@H](Cc1c[nH]c2ccccc12)C(=O)N[C@@H](CC(C)C)C(=O)N[C@@H](CC(C)C)C(=O)N[C@@H](C)C(=O)N[C@@H](CCC(N)=O)C(=O)N[C@@H](CCCCN)C(=O)NCC(=O)O)C(C)C)[C@@H](C)CC` [Compound 65] (H-[NMeY][Aib]EGTFISDYSI[Aib]LDR[Aib]AQ[Aib]K([AEEA-AEEA-γGlu-γGlu-C20 diacid])FVNWLLAQKG-OH), the solubility (pH 7.4) was not below 15 mg/mL and the solubility (pH 7.4, aqueous buffer) was not below 30 mg/mL.

The record behind these values is patent publication US20230143604A1, “QW DOSING OF GIP RECEPTOR AGONIST PEPTIDE COMPOUNDS AND USES THEREOF” (TAKEDA PHARMACEUTICAL COMPANY LIMITED, priority 2020, published 2023).
